US10308662B2, “Thienopyranones as kinase and epigenetic inhibitors” (SignalRx Pharmaceuticals, Inc., priority 2014, dated 2019)

How the values were obtained:
p-AKT(Ser473) = assay: Western blot of pAKT in SKNBE(2) cells; format: cell-based, human; details: 24 hrs treatment, 50 ng/ml IGF stimulation
Procedure: (§1) Cells were stimulated with 50 ng/ml IGF for 30 min and used for lysate preparation. Proteins were quantitated by the BCA protein assay (Pierce). Equal amounts of protein were resolved by polyacrylamide gels, transferred to nitrocellulose membrane and probed by Western blot with the following primary antibodies: p-AKT(Ser473), AKT (Cell Signaling Technologies), N-MYC, CyclinD1 and β-actin (Santa Cruz Biotechnology).

[1] = test system: NB9464 murine neuroblastoma tumor; assay: NB9464 tumor growth in nude mice; format: in vivo; details: 50 mg/kg, 3 days a week for 1.5 weeks, intra-peritoneal
Source text: MYCN-overexpressing murine neuroblastoma cells (NB9464) were transplanted into nude mice, grown for 24 days and randomized into two groups.

[2] = test system: SKNBE(2) neuroblastoma cell line; assay: Cytotoxicity / proliferation study, SKNBE(2); format: cell-based; details: Homo sapiens, SKNBE2; SKNBE(2) cell line
N-MYC = assay: Western blot of N-MYC in SKNBE(2) cells; format: cell-based, human; details: 24 hrs treatment, 50 ng/ml IGF stimulation
Procedure: as §1

Cyclin D1 mRNA = assay: Real-time PCR of Cyclin D1 mRNA in IMR32 cells; format: cell-based; details: IMR32, 5 μM, 24 hrs
BRD4 = BRD4 (Homo sapiens, UniProt O60885); assay: BRD4 inhibition assay (region not specified); format: binding
Procedure: The activity of a compound of the invention as an inhibitor of a bromodomain-containing protein, such as a BET protein, such as BRD2, BRD3, BRD4, and/or BRDT, or an isoform or mutant thereof, may be determined in vitro, in vivo, or in a cell line. In vitro assays include assays that determine inhibition of bromodomain-containing proteins. Alternatively, inhibitor binding may be determined by running a competition experiment where a provided compound is incubated with a bromodomain-containing protein, such as a BET protein bound to known ligands, labeled or unlabeled. For example, bromodomain inhibition can be determined in vitro using Alpha Screen Technology (http://www.reactionbiology.com/webapps/site/NewsPDFs/Bromodomain%20Assay%20Platform%20for%20Drug%20Screening%20and%20Discovery.pdf). […] Bromodomain inhibition may also be predicted by in silico modeling as described below in the Examples.
Computational modeling was performed using the commercially available FlexX (http://www.biosolveit.de/FlexX/download/flexx_brochure.pdf) software tools. […] It should be noted that the more negative the number or value of the docking score is, the stronger is the predicted binding energy at the BRD4 site that recognizes the acetyl lysine of chromatin.

[3] = test system: MYCN-dependent MB patient derived xenograft (PDX) cell line; assay: Cytotoxicity / proliferation study, PDX MB; format: cell-based; details: Homo sapiens
MYCN promoter region = assay: Brd4 chromatin precipitation with quantitative PCR of MYCN promoter in SKNBE(2) cells; format: cell-based, human; details: 24 hours exposure
Procedure: MYCN amplified SKNBE(2) cells were exposed to inhibitors for 24 hours then chromatin was precipitated with Brd4 (rabbit polyclonal antibody) along with rabbit IgG as a negative control (IgG). Precipitated chromatin was analyzed for the MYCN gene (2 sites within the MYCN promoter region) by quantitative PCR and enrichment is shown as the percentage of total input DNA (FIG. 4). The negative control region primers amplify within a gene desert region approximately 1 Mb away from MYCN (MYC-N NR). Error bars represent±SEM of triplicate data. P<0.05 as compared to positive control (paired t-test).

NB9464 cell line = assay: Cytotoxicity / proliferation study, NB9464; format: cell-based, murine; details: Mus musculus
N-myc (MYCN) mRNA = assay: Real-time PCR of N-myc mRNA in IMR32 cells; format: cell-based; details: IMR32, 5 μM, 24 hrs
[4] = test system: B16 F10 luciferase melanoma cells; assay: B16 melanoma mouse model of metastasis; format: in vivo, mice; details: 50 mg/kg every other day, 15 days
Source text: The luciferase signal was monitored every third day by injecting luciferin, until the lungs were harvested on day 15 (n=5). […] Lungs extracted from these animals are shown below the luciferase imaged pictures supporting the repression of tumor growth in Cmpd 28-treated mice.

Panc02 tumor cells = assay: Orthotopic Panc02 pancreatic model of spontaneous metastasis; format: in vivo, mice; details: 50 mg/kg three times a week
Procedure: Panc02 (1×10^6) tumor cells were injected into the pancreas of WT mice (n=18). After 20 days, mice were randomized into two groups. One group was treated with DMSO (control) and the other group was treated with 50 mg/kg of SF2523, three times a week. Tumors were removed 35 days after tumor implantation. Values are mean±SEM (n=8 in each gp; P<0.01; pair wise two-sided Student's t test). […] Values are mean±SEM (n=7; P<0.01; pair wise two-sided Student's t test). The data are representative of three independent experiments performed.

Structure (SMILES): O=c1cc(N2CCOCC2)oc2c(-c3ccc4c(c3)OCCO4)csc12 [Cmpd 28]
- pAKT level by Western blot (p-AKT(Ser473)): decreased MYCN and pAKT
- tolerability (body weight) [1]: well tolerated
- tumor growth compared to vehicle [1]: significantly blocked tumor growth
- IC50 [2]: 7.6 µM
- MYCN quantity by Western blot (N-MYC): decreased MYCN
- Cyclin D1 mRNA expression (Cyclin D1 mRNA): reducing mRNA expression
- BRD4 inhibition (BRD4): showed activity against BRD4 regions 1 and 2
- IC50 [3]: 3.6 µM
- MYCN expression (Brd4-precipitated chromatin, MYCN promoter PCR) (MYCN promoter region): significantly repressed MYCN expression
- IC50 (NB9464 cell line): 8.7 µM
- MYCN mRNA expression (N-myc (MYCN) mRNA): inhibits MYCN expression
- luciferase bioimaging of cancer cells [4]: little evidence of the presence of cancer cells
- reduction in metastatic nodules ([4]; lungs): 60%
- spontaneous metastasis (Panc02 tumor cells): blocks spontaneous metastasis
